The text below walks through data of patent publication US20080160163A1, “Reduction of Digestibility of Phosphorus” (BAYER HEALTHCARE AG, priority 2005, published 2008).

Series [1] deals with adult healthy domestic cats. The settings on record: 0.3 and 3.0 g per kg of feed for two weeks. From the text: Within the context of a larger study, 24 adult healthy domestic cats of both genders, individually fed with a commercially available regular canned diet (‘Petley's Gourmet Supreme Beef Casserole’, PROMEAL (PTY) Ltd., containing 0.19% phosphorus corresponding to 1.13% phosphorus in the dry matter), were randomised to three equal groups of eight animals which were fed for two weeks with dose levels corresponding to 0, 0.3, and 3.0 grams of lanthanum carbonate octahydrate per kg of feed in their daily feed ration.
During the study the amount of food consumed was recorded daily and the animals were observed daily for the possible occurrence of adverse events. In the faeces collected over a three-day sampling period at the end of the study, the phosphorus levels were measured. On comparing the dietary intake of phosphorus with the excretion of phosphorus in the faeces, the apparent phosphorus digestibility was calculated according to the following equation: […]

Series [2] concerns adult healthy female beagle dogs. The settings on record: dogs, 1.75, 5.0 and 17.5 g per kg of feed. From the text:
A total of twelve adult healthy female beagle dogs were individually fed with a commercially available regular canned feed (‘Eukanuba Adult with much lamb’, IAMs Pet Food Ltd., containing 0.25% of phosphorus corresponding to 1.09% phosphorus in the dry matter). At weekly intervals, their diet was supplemented with increasing amounts of lanthanum carbonate octahydrate, thus resulting in final concentrations of the feed additive of 0, 1.75, 5.0, and 17.5 g of lanthanum carbonate octahydrate per kg of feed.
During the study the amount of food consumed was recorded daily and the animals were observed daily for the possible occurrence of adverse events. In the faeces collected over a two-day sampling period at the end of the study, the phosphorus levels were measured. On comparing the dietary intake of phosphorus with the excretion of phosphorus in the faeces, the apparent phosphorus digestibility was calculated according to the following equation: […]

The subject of series [3] is adult healthy domestic cats. From the text:
Fifteen adult healthy domestic cats of both genders were individually fed with commercially available regular canned diet (Premium Pate rich in lamb, IAMS Pet Food GmbH & Co containing 0.26% of phosphorus corresponding to 1.13% phosphorus in the dry matter). The aim of the study was to assess the palatability and safety of lanthanum carbonate octahydrate especially in high doses. Therefore 10 cats were fed lanthanum carbonate octahydrate in their daily feed ration at increasing doses. The study began with a dose level of about 12-15 g per kg of feed (dry matter). The dose was doubled every two weeks up to a dose level of about 96-120 g per kg of feed (dry matter). Five cats were given the feed without any lanthanum carbonate octahydrate and served as controls.
Palatability was assessed daily by observing the general acceptance of the feed. Tolerability and safety were assessed by measuring the blood serum phosphate levels and body weight at regular intervals as well as by daily observations concerning the health status and the possible occurrence of adverse events.

Setting [4] is: up to a dose level of 1 g/kg of body weight (=about 108 mg per kg of dry feed).

On to `O.O.O.O.O.O.O.O.O=C([O-])[O-].O=C([O-])[O-].O=C([O-])[O-].[La+3].[La+3]` [lanthanum carbonate octahydrate], for which the “tolerance in the study animals” value in series [1] and in series [2] was “no negative effect” each time. For the same molecule, the apparent phosphorus digestibility entry in series [1] (FIG. 1.2) and in series [2] (FIG. 2.2) was “corresponding decrease” throughout. Further, the “phosphorus content in the faeces” value is recorded as “dose-dependently increased” in series [1] (faeces collected over three days, FIG. 1.1) and “dose-dependently increased” in series [2] (increased weekly, faeces collected over two days, FIG. 2.1). For the same molecule, in series [3] (even in extremely high doses), the “tolerance of the study animals” value was “no negative effect”. Moreover, in series [3] (increasing doses vs control cats), the “palatability or acceptance of the feed or its safety compared to the control cats” value was “no difference”. The adverse events result in series [3] (setting [4]) was “no limiting adverse events”. Also, in series [3] (setting [4]), the body weight entry is “no changes”. Besides, the serum phosphate levels result in series [3] (setting [4]) is reported as “no changes”.
